Reference: US20090149432A1, “METHODS FOR ADMINISTERING CORTICOSTEROID FORMULATIONS” (priority 2007, published 2009)
Read-outs that look alike come from different tables or passages of the source.

Columns and labels:
[1] = Plasma budesonide pharmacokinetics in asthmatic children, twice a day nebulization over six weeks; assay type: in vivo, human (asthmatic children); conditions: for AUC0-inf (geometric mean): nebulized; for AUC0-inf (geometric mean) / Cmax (geometric mean) / Cmax at 42 days / Cmax / half-life at 42 days / Tmax at 42 days / half-life / Tmax: asthmatic children; for Cmax at 42 days / Cmax / half-life at 42 days / Tmax at 42 days / half-life / Tmax / Tmax at 6 weeks: human, plasma, inhaled; for Cmax at 42 days / Cmax: read-out: Cmax (geometric mean); for half-life at 42 days / half-life: read-out: T1/2 (geometric mean); for Tmax at 42 days / Tmax: read-out: Tmax (geometric mean) (converted); for Tmax at 6 weeks: read-out: Tmax averaged over 6 weeks (converted)
Protocol: The budesonide was administered twice a day by a nebulizer for six weeks (42 days). In one subset, budesonide was administered at a dose of 0.25 mg. In the other subset, budesonide was administered at a dose of 0.135 mg.
Tmaxs averaged about 4.3 minutes (SD±0.63 minutes) for the two dosage strengths and time of treatment that ranged from zero to six weeks. […] The Cmaxs and AUCs (area under the curve) obtained for the two different dosage strengths were below levels that would induce side effects due to systemic exposure. […] Murphy et al.'s dosing regimen of 1.0 mg twice a day (bid) was the same as that for Pulmicort Respules when the pharmacokinetics of Pulmicort Respules was being assessed by Astrazeneca (Pharmacokinetics section of Pulmicort Respules label insert).

[2] = test system: hypothalamus-pituitary-adrenal (HPA) axis; assay: ACTH-induced plasma cortisol levels in children after six weeks of treatment; assay type: in vivo, human (children); conditions: doses of Tables 3 and 4
From the text: An important measure of systemic exposure to corticosteroids is the level of endogenous cortisols in the blood. Excess exogenous corticosteroids will suppress natural production of cortisols due to the suppression of the adrenal cortex. […] Both these changes are statistically insignificant.

Structure (SMILES): CCCC1O[C@@H]2C[C@H]3[C@@H]4CCC5=CC(=O)C=C[C@]5(C)[C@H]4[C@@H](O)C[C@]3(C)[C@]2(C(=O)CO)O1 (some centres unmarked) [Budesonide, budesonide]
- AUC0-inf (geometric mean) ([1]; 0.135 mg dose twice a day, Day 42): 22,071 pg-min/mL
- AUC0-inf (geometric mean) ([1]; 0.135 mg dose twice a day, First Dose): 10,238 pg-min/mL
- change of AUC0-inf ([1]; 0.135 mg dose, by week six of dosing): more than doubled
- change of Cmax ([1]; 0.135 mg dose, initial dosing to week six): more than tripling
- Cmax (geometric mean) ([1]; 0.135 mg dose, Day 42): 672.1 pg/mL
- Cmax (geometric mean) ([1]; 0.135 mg dose, First Dose): 214.4 pg/mL
- Cmax to AUC0-inf ratio ([1]; 0.135 mg dose, standard deviation less than approximately 0.006 min^−1): approximately 0.02 min^−1
- AUC0-inf (geometric mean) ([1]; 0.25 mg dose twice a day, Day 42): 33,116 pg-min/mL
- AUC0-inf (geometric mean) ([1]; 0.25 mg dose twice a day, Day 42, listed as budesonide): about 33,116 pg-min/mL
- AUC0-inf (geometric mean) ([1]; 0.25 mg dose twice a day, First Dose): 20,849 pg-min/mL
- AUC0-inf (geometric mean) ([1]; 0.25 mg dose twice a day, First Dose, listed as budesonide): about 20,849 pg-min/mL
- Cmax to AUC0-inf ratio ([1]; 0.25 mg dose, standard deviation less than approximately 0.007 min^−1): approximately 0.025 min^−1
- change of Cmax ([1]; 0.25 mg, after 42 days (six weeks) of dosing): at least double
- increase of AUC0-inf, times its value at first dose ([1]; 0.25 mg, repeat dosing for six weeks): about 1.6 times
- Cmax at 42 days ([1]; 0.135 mg, Day 42): ~0.672 ng/mL
- Cmax ([1]; 0.135 mg, First Dose): ~0.214 ng/mL
- Cmax at 42 days ([1]; 0.25 mg, Day 42): 0.746 ng/mL
- Cmax ([1]; 0.25 mg, First Dose): 0.321 ng/mL
- half-life at 42 days ([1]; 0.135 mg dose, Day 42): 71.3 min
- Tmax at 42 days ([1]; 0.135 mg dose, Day 42): 4.4 min
- half-life ([1]; 0.135 mg dose, First Dose): 42.1 min
- Tmax ([1]; 0.135 mg dose, First Dose): 4.4 min
- Tmax at 6 weeks ([1]; 0.135 mg dose): 4.4 min
- half-life at 42 days ([1]; 0.25 mg dose, Day 42): 75.7 min
- Tmax at 42 days ([1]; 0.25 mg dose, Day 42): 5 min
- half-life ([1]; 0.25 mg dose, First Dose): 155 min
- Tmax ([1]; 0.25 mg dose, First Dose): 3.3 min
- Tmax at 6 weeks ([1]; 0.25 mg dose): 4.1 min
- HPA axis suppression [2]: no evidence of hypothalamus-pituitary-adrenal (HPA) axis suppression
